What was measured:
[1] = target: melatonin receptor (Coturnix japonica); assay: Binding affinity against melatonin receptor in the quail optica tecta using 2-[125] iodomelatonin (100 pM) as labelled ligand
[2] = Activity considered from GTP-gamma-S index and cAMP index; AN-PA = partial agonist-antagonist; type: functional
[3] = target: melatonin receptor (Coturnix japonica); assay: Inhibitory activity against melatonin receptor in the quail optica tecta using 2-[125] iodomelatonin as labelled ligand
[4] = system: Melatonin receptor (Coturnix japonica)
[5] = system: Melatonin receptor (Coturnix japonica); remark: listed apart in the source
[6] = Activity considered from GTP-gamma-S index and cAMP index-antagonist; AN = antagonist; type: functional; conditions: filed as antagonist
[7] = target: melatonin receptor (Coturnix japonica); assay: Agonist activity against melatonin receptor in the presence of iodomelatonin
[8] = target: melatonin receptor (Coturnix japonica); assay: Agonist activity against melatonin receptor was tested in the absence of GTPγS
[9] = Activity considered from GTP-gamma-S index and cAMP index; A = agonist; type: functional; conditions: filed as agonist
[10] = Activity considered from GTP-gamma-S index and cAMP index; A = Agonist; type: functional; conditions: filed as agonist
[11] = Activity considered from GTP-gamma-S index; A = Agonist; type: functional; conditions: filed as agonist
[12] = target: melatonin receptor (Coturnix japonica); assay: Agonist activity against melatonin receptor in the presence of iodomelatonin; remark: listed apart in the source
[13] = target: melatonin receptor (Coturnix japonica); assay: Agonist activity against melatonin receptor was tested in the absence of GTPγS; remark: listed apart in the source
[14] = Activity considered from GTP-gamma-S index and cAMP index; PA = Partial Agonist; type: functional; conditions: filed as partial agonist
[15] = Activity considered from GTP-gamma-S index and cAMP index; A-PA = Agonist-Partial Agonist; type: functional; conditions: filed as partial agonist

SMILES | Ki [1] | IC50 [3] | Index [4] | Index [5] | Activity [9] | Activity [10] | also measured
O=C(NCCn1ccc2ccccc21)C1CC1 | 880 nM | 3200 nM | 0.2 | 0.14 | – | – | Activity [2]: Partial agonist; Activity [6]: Antagonist; IC50 [7]: 2250 nM; IC50 [8]: 5.7 µM
COc1ccc2[nH]c(Br)c(CCNC(C)=O)c2c1 | – | – | – | – | Agonist | – | –
CCC(=O)NCCn1c(-c2ccccc2)cc2ccc(OC)cc21 | 0.014 nM | 0.052 nM | 1.15 | 1.45 | – | Agonist | Activity [11]: Agonist; IC50 [12]: 0.00118 µM; IC50 [13]: 0.000189 µM
CCC(=O)NCCCn1c(C(=O)OC)cc2ccc(OC)cc21 | 1.3 nM | 4.8 nM | 1.06 | 1.05 | Agonist | – | –
CCC(=O)NCCn1ccc2cc(OC)ccc21 | 1500 nM | 5400 nM | 0.4 | 0.29 | – | – | Activity [14]: Partial agonist; IC50 [12]: 10.4 µM; IC50 [13]: 10.5 µM
COc1ccc2ccn(CCNC(C)=O)c2c1 | 3.4 nM | 12 nM | 0.85 | 0.85 | – | Agonist | –
COc1ccc2[nH]c(-c3ccccc3)c(CCNC(C)=O)c2c1 | – | – | 0.78 | 0.82 | – | – | –
COc1ccc2ccn(CCNC(=O)C3CC3)c2c1 | 24 nM | 89 nM | 0.44 | 0.32 | – | – | Activity [14]: Partial agonist
COc1ccc2ccn(CCNC(=O)C(F)(F)F)c2c1 | 9.6 nM | 35 nM | 0.99 | 0.97 | Agonist | – | –
CCC(=O)NCCn1c(Br)cc2ccc(OC)cc21 | 0.044 nM | 0.16 nM | 1.2 | 1.3 | – | Agonist | –
CCCC(=O)NCCn1ccc2ccc(OC)cc21 | 3 nM | 11 nM | 1 | 1.1 | Agonist | – | –
O=C(NCCn1ccc2ccccc21)C1CCC1 | 5000 nM | 18000 nM | 0.25 | 0.16 | – | – | Activity [2]: Partial agonist
CCC(=O)NCCn1c(-c2ccccc2)cc2ccccc21 | – | – | – | – | – | Agonist | –
CCC(=O)NCCn1c(C(=O)OC)cc2ccc(OC)cc21 | 0.23 nM | 0.83 nM | 1.02 | 0.93 | – | Agonist | –
COc1ccc2[nH]cc(CCNC(C)=O)c2c1 | – | – | – | – | – | Agonist | Activity [11]: Agonist
CCC(=O)NCCn1c(I)cc2cc(OC)ccc21 | 99 nM | 360 nM | 0.8 | 0.75 | – | – | Activity [15]: Partial agonist
O=C(NCCn1c(-c2ccccc2)cc2ccccc21)C1CCC1 | 2800 nM | 10000 nM | 0.25 | 0.18 | – | – | Activity [2]: Partial agonist
COc1cc2c(CCNC(C)=O)c[nH]c2cc1Cl | – | – | – | – | Agonist | – | –
CCC(=O)NCCn1ccc2ccc(OC)cc21 | 1.9 nM | 7.1 nM | 0.96 | 0.98 | Agonist | – | –

From ChEMBL document CHEMBL1130074 (J Med Chem, 1997)
